Source: the NIST ThermoML archive (doi:10.1021/je100830b)
Numbers after ± are expanded uncertainties.

Conditions: 298.15 K; 101.33 kPa; Liquid; Vibrating tube method

Structure (SMILES) | mass density
CCCCn1cc[n+](C)c1.COS(=O)(=O)[O-] [1-butyl-3-methylimidazolium methyl sulfate] | 1208 ± 2.8 kg/m3
CCO [ethanol] | 786.4 ± 0.2 kg/m3
CO [methanol] | 786.3 ± 0.2 kg/m3
C[N+](=O)[O-] [nitromethane] | 1130.9 ± 0.4 kg/m3
CCCO [propan-1-ol] | 797.6 ± 0.2 kg/m3
